The record followed here is paper PMC8550792, “Evolution of kinase polypharmacology across HSP90 drug discovery” (Cell Chemical Biology, 2021).

Experiment in all cases: biochemical
Holding throughout (assay type): biochemical

For test [1], the target named is T1, 382 unique human kinases (Homo sapiens, UniProt P15056, V600A).
T1 construct: purchased Reaction Biology (HotSpot contract assay)
As to conditions: BRAF (V600A), compound at 10 uM, duplicate values; for remaining activity at 10 µM: read-out: % Enzyme Activity (relative to DMSO controls).

Test [2] has as its target T2, 382 unique human kinases (Homo sapiens, UniProt P22455).
T2 construct: purchased Reaction Biology (HotSpot contract assay)
To be noted: FGFR4, 10 uM; for remaining activity at 10 µM: read-out: % Enzyme Activity (relative to DMSO controls).

Test [3] deals with T3, 382 unique human kinases (Homo sapiens, UniProt P25098).
T3 construct: purchased Reaction Biology (HotSpot contract assay)
T3 sequence (P25098 1-689): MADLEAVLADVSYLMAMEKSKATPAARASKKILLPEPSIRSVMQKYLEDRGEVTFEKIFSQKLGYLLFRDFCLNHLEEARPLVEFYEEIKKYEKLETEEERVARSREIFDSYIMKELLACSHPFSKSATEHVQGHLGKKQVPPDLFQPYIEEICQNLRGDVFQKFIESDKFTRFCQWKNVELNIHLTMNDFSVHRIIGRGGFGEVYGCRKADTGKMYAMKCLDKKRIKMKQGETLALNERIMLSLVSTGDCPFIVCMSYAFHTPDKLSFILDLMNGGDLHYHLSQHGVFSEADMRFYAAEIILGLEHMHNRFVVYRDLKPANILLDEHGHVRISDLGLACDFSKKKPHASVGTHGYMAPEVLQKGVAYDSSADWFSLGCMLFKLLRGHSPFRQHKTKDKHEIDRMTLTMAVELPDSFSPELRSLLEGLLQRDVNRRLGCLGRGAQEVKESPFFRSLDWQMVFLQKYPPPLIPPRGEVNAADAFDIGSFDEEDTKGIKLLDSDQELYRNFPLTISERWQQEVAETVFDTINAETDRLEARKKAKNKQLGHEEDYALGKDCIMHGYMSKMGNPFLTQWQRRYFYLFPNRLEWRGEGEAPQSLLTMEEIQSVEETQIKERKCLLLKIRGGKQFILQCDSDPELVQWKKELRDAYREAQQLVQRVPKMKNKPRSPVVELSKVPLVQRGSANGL
To be noted: GRK2, compound at 10 uM, duplicate values; for remaining activity at 10 µM: read-out: % Enzyme Activity (relative to DMSO controls).

Test [4] addresses T4, 382 unique human kinases (Homo sapiens, UniProt P53779).
T4 construct: purchased Reaction Biology (HotSpot contract assay)
To be noted: JNK3, compound at 10 uM, duplicate values; for remaining activity at 10 µM: read-out: % Enzyme Activity (relative to DMSO controls).

The target in test [5] is T5, 382 unique human kinases (Homo sapiens, UniProt Q13557).
T5 construct: purchased Reaction Biology (HotSpot contract assay)
T5 sequence (Q13557 whole entry): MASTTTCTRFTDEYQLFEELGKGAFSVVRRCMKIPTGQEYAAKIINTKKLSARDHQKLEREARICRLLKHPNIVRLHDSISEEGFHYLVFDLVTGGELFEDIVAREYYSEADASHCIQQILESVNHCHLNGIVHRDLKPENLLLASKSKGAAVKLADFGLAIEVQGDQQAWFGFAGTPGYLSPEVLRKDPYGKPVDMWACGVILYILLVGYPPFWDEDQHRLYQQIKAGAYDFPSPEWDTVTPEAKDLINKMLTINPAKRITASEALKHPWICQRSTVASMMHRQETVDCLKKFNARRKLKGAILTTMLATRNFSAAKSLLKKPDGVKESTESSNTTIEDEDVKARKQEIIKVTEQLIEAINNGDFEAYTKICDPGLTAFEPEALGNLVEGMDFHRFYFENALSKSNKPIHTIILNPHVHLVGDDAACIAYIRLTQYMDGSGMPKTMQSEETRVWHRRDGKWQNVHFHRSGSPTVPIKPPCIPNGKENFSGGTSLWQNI
As to conditions: CAMK2d, 10 uM; for remaining activity at 10 µM: read-out: % Enzyme Activity (relative to DMSO controls).

The target in test [6] is T6, 382 unique human kinases (Homo sapiens, UniProt P00519).
T6 construct: purchased Reaction Biology (HotSpot contract assay)
T6 sequence (P00519 whole entry): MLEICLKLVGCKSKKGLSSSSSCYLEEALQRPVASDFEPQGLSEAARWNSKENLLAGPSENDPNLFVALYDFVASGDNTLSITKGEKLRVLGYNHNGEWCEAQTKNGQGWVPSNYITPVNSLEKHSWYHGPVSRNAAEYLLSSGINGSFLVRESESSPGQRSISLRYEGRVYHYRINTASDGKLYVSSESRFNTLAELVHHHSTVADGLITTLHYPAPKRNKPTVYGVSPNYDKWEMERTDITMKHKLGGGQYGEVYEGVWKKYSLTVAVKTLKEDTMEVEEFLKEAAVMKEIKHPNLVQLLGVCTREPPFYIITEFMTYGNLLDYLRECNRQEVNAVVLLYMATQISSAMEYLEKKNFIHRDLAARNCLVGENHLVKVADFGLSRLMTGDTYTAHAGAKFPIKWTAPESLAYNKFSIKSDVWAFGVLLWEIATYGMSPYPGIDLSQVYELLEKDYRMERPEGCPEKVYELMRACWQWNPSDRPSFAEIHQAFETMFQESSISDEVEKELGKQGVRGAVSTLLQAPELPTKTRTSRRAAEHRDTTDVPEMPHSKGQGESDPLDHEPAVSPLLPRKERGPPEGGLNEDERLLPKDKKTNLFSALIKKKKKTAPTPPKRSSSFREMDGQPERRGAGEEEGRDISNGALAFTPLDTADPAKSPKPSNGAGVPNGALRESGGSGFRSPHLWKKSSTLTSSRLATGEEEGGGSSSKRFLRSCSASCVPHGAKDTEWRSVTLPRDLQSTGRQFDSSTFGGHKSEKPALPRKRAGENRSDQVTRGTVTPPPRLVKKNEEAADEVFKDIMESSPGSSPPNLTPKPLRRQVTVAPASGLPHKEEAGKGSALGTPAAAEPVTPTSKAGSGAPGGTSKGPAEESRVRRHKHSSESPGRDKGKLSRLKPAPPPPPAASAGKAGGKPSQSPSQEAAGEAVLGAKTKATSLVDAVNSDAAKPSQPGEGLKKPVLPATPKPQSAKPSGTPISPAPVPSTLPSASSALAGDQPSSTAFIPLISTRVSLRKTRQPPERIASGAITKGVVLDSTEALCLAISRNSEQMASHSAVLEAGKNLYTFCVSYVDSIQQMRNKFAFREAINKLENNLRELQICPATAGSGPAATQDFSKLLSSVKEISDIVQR
To be noted: ABL1, [ATP] 40 µM.

Test [7] deals with T7, 382 unique human kinases (Homo sapiens, UniProt P00533, DEL752-759).
T7 construct: purchased Reaction Biology (HotSpot contract assay)
To be noted: EGFR (d752-759), 10 uM; for remaining activity at 10 µM: read-out: % Enzyme Activity (relative to DMSO controls).

In test [8] the target is T8, 382 unique human kinases (Homo sapiens, UniProt P53350).
T8 construct: purchased Reaction Biology (HotSpot contract assay)
T8 sequence (P53350 whole entry): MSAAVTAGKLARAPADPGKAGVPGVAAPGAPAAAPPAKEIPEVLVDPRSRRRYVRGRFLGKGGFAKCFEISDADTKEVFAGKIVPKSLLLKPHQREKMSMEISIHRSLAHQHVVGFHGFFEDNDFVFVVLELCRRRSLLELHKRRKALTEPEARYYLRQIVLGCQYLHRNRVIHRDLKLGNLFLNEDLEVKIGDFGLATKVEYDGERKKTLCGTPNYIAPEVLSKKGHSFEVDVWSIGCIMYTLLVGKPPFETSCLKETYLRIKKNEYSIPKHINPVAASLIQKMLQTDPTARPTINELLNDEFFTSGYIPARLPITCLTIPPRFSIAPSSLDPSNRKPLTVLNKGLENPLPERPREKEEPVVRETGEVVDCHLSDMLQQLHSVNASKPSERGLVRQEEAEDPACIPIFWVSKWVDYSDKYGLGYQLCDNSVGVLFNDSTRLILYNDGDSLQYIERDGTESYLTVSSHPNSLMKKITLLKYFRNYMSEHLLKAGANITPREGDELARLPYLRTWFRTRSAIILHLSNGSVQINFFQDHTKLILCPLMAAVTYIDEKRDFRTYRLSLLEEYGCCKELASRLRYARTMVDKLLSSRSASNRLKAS
To be noted: PLK1, [ATP] 30 µM.

Test [9] concerns the target T9, 382 unique human kinases (Homo sapiens, UniProt Q9UIK4).
T9 construct: purchased Reaction Biology (HotSpot contract assay)
As to conditions: DAPK2, 10 uM; for remaining activity at 10 µM: read-out: % Enzyme Activity (relative to DMSO controls).

In test [10] the target is T10, 382 unique human kinases (Homo sapiens, UniProt Q9UL54).
T10 construct: purchased Reaction Biology (HotSpot contract assay)
T10 sequence (Q9UL54 1-1235): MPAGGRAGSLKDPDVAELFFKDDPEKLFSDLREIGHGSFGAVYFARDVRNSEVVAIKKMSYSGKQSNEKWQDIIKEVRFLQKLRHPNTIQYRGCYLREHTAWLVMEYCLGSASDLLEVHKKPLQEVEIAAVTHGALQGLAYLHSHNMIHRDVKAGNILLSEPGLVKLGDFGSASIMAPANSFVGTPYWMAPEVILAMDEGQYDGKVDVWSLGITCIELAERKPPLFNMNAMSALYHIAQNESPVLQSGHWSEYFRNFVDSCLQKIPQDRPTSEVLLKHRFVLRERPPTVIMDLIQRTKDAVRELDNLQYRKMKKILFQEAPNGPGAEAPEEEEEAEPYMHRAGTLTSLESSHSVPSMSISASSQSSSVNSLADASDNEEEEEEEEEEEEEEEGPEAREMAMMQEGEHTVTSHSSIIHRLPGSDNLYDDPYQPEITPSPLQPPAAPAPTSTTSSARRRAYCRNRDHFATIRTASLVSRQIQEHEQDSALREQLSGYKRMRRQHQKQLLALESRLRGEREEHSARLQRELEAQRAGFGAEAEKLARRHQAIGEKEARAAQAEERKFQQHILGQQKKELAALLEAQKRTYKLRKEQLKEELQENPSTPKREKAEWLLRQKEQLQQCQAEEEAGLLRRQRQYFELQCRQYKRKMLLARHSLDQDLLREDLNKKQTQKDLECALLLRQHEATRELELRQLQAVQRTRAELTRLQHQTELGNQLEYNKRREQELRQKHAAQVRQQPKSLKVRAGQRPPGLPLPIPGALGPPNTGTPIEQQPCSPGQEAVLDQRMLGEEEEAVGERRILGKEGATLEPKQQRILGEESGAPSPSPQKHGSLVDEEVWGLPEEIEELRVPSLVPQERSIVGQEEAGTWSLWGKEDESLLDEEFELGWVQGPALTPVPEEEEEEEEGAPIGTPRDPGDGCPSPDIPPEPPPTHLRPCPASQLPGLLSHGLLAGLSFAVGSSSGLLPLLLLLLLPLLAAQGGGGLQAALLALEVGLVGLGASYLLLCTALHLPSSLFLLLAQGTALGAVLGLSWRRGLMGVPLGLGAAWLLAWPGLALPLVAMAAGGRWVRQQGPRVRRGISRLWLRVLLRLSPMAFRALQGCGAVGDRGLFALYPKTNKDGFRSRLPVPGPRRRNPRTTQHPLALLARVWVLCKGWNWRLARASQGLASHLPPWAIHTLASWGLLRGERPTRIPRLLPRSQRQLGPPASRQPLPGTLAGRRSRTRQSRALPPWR
As to conditions: TAOK2/TAO1, [ATP] 30 µM, compound 10 uM; for remaining activity at 10 µM: read-out: % Enzyme Activity (relative to DMSO controls).

Where [11] appears, read: compound 1 uM, read-out: % Enzyme Activity (relative to DMSO controls).
[12] abbreviates: compound 10 uM, read-out: % Enzyme Activity (relative to DMSO controls).

T1 sequence (P15056 whole entry V600A): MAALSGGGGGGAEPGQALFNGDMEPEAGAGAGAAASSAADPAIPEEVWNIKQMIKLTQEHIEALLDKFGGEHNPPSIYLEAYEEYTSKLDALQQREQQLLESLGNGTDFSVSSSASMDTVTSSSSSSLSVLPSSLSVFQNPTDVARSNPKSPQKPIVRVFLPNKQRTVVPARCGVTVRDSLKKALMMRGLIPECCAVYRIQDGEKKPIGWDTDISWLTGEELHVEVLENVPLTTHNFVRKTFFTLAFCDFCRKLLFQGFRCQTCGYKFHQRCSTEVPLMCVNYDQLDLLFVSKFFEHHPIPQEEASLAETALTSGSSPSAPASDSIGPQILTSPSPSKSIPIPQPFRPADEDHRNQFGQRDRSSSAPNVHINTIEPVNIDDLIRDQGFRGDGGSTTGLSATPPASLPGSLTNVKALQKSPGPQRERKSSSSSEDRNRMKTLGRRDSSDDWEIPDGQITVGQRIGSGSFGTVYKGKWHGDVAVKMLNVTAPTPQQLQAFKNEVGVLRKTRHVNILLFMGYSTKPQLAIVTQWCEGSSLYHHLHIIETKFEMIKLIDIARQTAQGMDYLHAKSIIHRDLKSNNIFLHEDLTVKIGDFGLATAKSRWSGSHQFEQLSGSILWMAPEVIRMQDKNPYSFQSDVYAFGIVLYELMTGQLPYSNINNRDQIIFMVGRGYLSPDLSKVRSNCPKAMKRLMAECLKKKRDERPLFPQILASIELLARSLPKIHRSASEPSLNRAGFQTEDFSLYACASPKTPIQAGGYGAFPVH
T2 sequence (P22455 22-802): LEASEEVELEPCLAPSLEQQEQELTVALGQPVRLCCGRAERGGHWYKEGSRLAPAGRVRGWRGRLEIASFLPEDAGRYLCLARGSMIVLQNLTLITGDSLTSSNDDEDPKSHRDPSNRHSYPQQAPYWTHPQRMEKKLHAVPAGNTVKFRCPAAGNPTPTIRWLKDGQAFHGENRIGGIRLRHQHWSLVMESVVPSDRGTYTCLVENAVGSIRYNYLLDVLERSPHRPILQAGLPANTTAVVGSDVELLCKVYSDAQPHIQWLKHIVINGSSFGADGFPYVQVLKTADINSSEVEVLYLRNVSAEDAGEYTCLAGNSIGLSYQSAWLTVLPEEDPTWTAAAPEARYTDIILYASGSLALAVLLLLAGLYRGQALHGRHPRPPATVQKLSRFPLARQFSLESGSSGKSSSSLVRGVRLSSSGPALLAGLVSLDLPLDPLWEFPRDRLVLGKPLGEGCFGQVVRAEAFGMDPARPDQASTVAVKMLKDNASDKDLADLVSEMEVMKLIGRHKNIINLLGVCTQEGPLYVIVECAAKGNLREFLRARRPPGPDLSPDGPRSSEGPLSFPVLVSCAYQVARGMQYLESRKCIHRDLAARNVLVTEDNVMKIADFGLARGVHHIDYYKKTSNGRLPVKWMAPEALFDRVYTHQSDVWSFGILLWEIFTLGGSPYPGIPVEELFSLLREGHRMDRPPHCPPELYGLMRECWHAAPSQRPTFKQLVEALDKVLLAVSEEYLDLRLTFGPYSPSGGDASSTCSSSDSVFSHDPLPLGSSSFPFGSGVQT
T4 sequence (P53779 whole entry): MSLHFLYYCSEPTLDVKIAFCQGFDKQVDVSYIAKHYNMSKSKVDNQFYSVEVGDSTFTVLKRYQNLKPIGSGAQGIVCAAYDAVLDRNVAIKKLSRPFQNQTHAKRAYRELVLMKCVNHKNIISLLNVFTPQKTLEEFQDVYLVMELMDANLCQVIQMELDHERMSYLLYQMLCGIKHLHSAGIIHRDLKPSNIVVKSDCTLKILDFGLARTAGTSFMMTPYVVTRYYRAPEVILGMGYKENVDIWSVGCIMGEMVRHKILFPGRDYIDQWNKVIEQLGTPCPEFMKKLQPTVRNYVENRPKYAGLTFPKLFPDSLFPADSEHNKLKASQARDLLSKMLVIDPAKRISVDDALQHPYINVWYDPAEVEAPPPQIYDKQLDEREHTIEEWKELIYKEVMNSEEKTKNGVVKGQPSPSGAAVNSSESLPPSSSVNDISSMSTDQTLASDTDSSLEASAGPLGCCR
T9 sequence (Q9UIK4 whole entry): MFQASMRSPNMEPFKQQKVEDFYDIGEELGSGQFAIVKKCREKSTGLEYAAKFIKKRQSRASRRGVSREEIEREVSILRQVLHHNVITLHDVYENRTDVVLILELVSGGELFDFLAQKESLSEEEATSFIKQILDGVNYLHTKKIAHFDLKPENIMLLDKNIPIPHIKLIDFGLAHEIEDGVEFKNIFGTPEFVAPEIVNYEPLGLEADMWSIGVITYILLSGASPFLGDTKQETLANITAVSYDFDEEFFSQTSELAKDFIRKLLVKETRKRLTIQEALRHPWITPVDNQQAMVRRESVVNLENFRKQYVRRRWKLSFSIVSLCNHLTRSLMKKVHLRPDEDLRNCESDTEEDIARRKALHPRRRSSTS

With `CC(C)c1cc(-c2n[nH]c(=O)n2-c2ccc3c(ccn3C)c2)c(O)cc1O` [Ganetespib (STA9090)], the remaining activity at 10 µM on 382 unique human kinases [1] was determined as 119%; on 382 unique human kinases [2], 71.5%; on 382 unique human kinases [3], 104%; on 382 unique human kinases [4], 118%; on 382 unique human kinases [5], 72.8%.

On to `CC(C)c1cc(-c2n[nH]c(=O)n2-c2ccc3c(ccn3C)c2)c(O)cc1O` [Ganetespib], for which the remaining activity at 1 µM was found to be 18.3% at 382 unique human kinases [6] (setting [11]) and 88.2% at 382 unique human kinases [8] (setting [11]). The remaining activity at 10 µM on 382 unique human kinases [7] worked out at 103%; on 382 unique human kinases [8] (setting [12]), 11.5%; at 382 unique human kinases [9], 96.6%; at 382 unique human kinases [10], 58.9%.

As for `CCNC(=O)c1noc(-c2cc(C(C)C)c(O)cc2O)c1-c1ccc(CN2CCOCC2)cc1` [Luminespib (AUY-922)], the “% Enzyme Activity (relative to DMSO controls)” value on 382 unique human kinases [1] is on record as 102.37%; at 382 unique human kinases [2] it was 96.06%; at 382 unique human kinases [3], 104.97%; at 382 unique human kinases [4] it was 106.79%; on 382 unique human kinases [5], 89.83%. Moreover, the remaining activity at 10 µM on 382 unique human kinases [1] was 105%; on 382 unique human kinases [2], 97.1%; on 382 unique human kinases [3], 106%; on 382 unique human kinases [4], 107%; at 382 unique human kinases [5], 89.9%.

Regarding `CCNC(=O)c1noc(-c2cc(C(C)C)c(O)cc2O)c1-c1ccc(CN2CCOCC2)cc1` [Luminespib], the “% Enzyme Activity (relative to DMSO controls)” value amounted to 6.22% on 382 unique human kinases [6] (compound 10 uM); 98.01% at 382 unique human kinases [7]; 100.90% on 382 unique human kinases [8] (compound 10 uM); 94.93% on 382 unique human kinases [9]; 95.89% at 382 unique human kinases [10]. In addition, the remaining activity at 10 µM is 6.93% at 382 unique human kinases [6] (setting [12]); 99.4% on 382 unique human kinases [7]; 103% at 382 unique human kinases [8] (setting [12]); 95.4% on 382 unique human kinases [9]; 96% at 382 unique human kinases [10].
